Data as given in BigSolDB 2.1.

Oc1cccc(/C=N\NC(=S)NC2CCCCC2)c1
Conditions	solubility (mole fraction)
in PEG-400, 298.15 K	0.071
in PEG-400, 308.15 K	0.0774
in PEG-400, 318.15 K	0.0845
in PEG-400, 328.15 K	0.0929
in PEG-400, 338.15 K	0.101

solubility (mole fraction)
Conditions	in ethanol	in ethyl acetate	in ethylene glycol	in isopropanol	in propylene glycol	in transcutol	in water
298.15 K	0.0135	0.0104	0.00185	0.0302	0.0319	0.0938	3.9e-07
308.15 K	0.0141	0.0117	0.00225	0.0313	0.0332	0.0978	5.85e-07
318.15 K	0.0149	0.0132	0.0029	0.0323	0.0345	0.102	9.09e-07
328.15 K	0.0156	0.0147	0.00358	0.0335	0.036	0.106	1.36e-06
338.15 K	0.0164	0.0167	0.00454	0.0345	0.0376	0.111	1.88e-06
